Measured values published in US12624309B2, “Enol ether properfume” (Firmenich SA, priority 2020, dated 2026).

Experiment: Acid-catalyzed hydrolysis of enol ethers in THF/1 M HCl, percent remaining by GC-FID
Type: physicochemical
Settings: for percent remaining, 24 h / percent remaining, 48 h / percent remaining, 72 h / percent remaining, 168 h / percent remaining, 336 h / percent remaining, 504 h / percent remaining, 672 h / percent remaining, initial: room temperature; for percent remaining, initial: time zero
Method: Each enol ether was dissolved in a 4:1 THF/1 M HCl mixture and the percent remaining over time measured relative to an internal standard.
After mixing, 2 mL of this solution were removed with a volumetric pipet and used to obtain the time zero measurement. 2 mL of 1 M HCl were mixed with the remaining 8 mL of the THF solution. This mixture was divided into 5 mL vials (1 mL per vial). The vials were gently topped with nitrogen and fitted with screw caps around which parafilm was wrapped. The vials were stored at room temperature until analyzed. For analyses, 2 mL of ethyl acetate was added to a vial and mixed. After phase separation, the top phase was collected and washed with saturated sodium carbonate (1 mL). Samples of the organic phase were analyzed by GC-FID. For the time zero sample, 0.5 mL of deionized water was added to the 2 mL taken from the original THF solution. 1 mL of this solution was added to a 5 mL vial and diluted with 2 mL of ethyl acetate and mixed. The top phase was collected and washed with saturated sodium carbonate (1 mL). The top phase then was analyzed by GC-FID. The percent of enol ether remaining was determined by dividing the peak area ratio of the enol ether to internal standard by the ratio measured at time zero.

SMILES | percent remaining, 24 h (THF/1M HCl (80:20 v/v)) | percent remaining, 48 h (THF/1M HCl (80:20 v/v)) | percent remaining, 72 h (THF/1M HCl (80:20 v/v)) | percent remaining, 168 h (THF/1M HCl (80:20 v/v)) | percent remaining, 336 h (THF/1M HCl (80:20 v/v)) | percent remaining, 504 h (THF/1M HCl (80:20 v/v), 504 h) | percent remaining, 672 h (THF/1M HCl (80:20 v/v)) | percent remaining, initial (THF/1M HCl (80:20 v/v)) | rate of hydrolysis / hydrolytic stability compared to corresponding enol ethers prepared from alkyl alcohols (THF/1M HCl (80:20 v/v), in words) | enol ether remained after 504 h (21 days) (Table 1, THF/1M HCl, 504 h)
CC(=COC(C)(C)CCCC(C)C)c1ccccc1 [(1-(2,6-dimethylheptan-2-yloxy)prop-1-en-2-yl)benzene, reference compound] | 92.9% | 85.7% | 80.5% | 60.3% | 41.7% | 28.1% | 17.9% | 100% |  | 
COC(=O)C(C)(C)OC=C(C)c1ccccc1 [Compound 25, methyl 2-methyl-2-((2 phenylprop-1-en-1-yl)oxy)propanoate] |  |  | 100% | 98.1% | 93.6% | 90.0% | 89.6% | 100% | improved hydrolytic stability | 
CC/C=C\CCOC(=O)C(C)OC=Cc1ccccc1 (racemic) [Compound 39, (±)-(Z)-hex-3-en-1-yl 2-(styryloxy)propanoate] | 96.3% | 95.3% | 90.7% | 79.6% | 67.3% | 53.0% | 41.2% | 100% |  | 
COC(=O)C(C)(C)OC=C(C)c1ccc(OC)cc1 [Compound 27, methyl 2-((2-(4-methoxyphenyl)prop-1-en-1-yl)oxy)-2-methylpropanoate] | 102% | 101% | 99.7% | 97.8% | 87.7% | 89.1% | 84.7% | 100% |  | 
CC/C=C\CCOC(=O)C(C)OC=Cc1ccc(OC)cc1 (racemic) [Compound 42, (±)-(Z)-hex-3-en-1-yl 2-((4-methoxystyryl)oxy)propanoate] | 95.1% | 93.9% | 89.8% | 78.1% | 60.1% | 46.8% | 35.2% | 100% |  | 46.8%
CCCCCC(CC)OC(=O)C(C)OC=Cc1ccccc1 (racemic) [Compound 41, (±)-octan-3-yl 2-(styryloxy)propanoate] | 99.7% | 99.2% | 98.1% | 94.1% | 91.7% | 88.4% | 84.4% | 100% |  | 
CCCCCC(CC)OC=C(C)c1ccccc1 (centres unmarked) [(1-(octan-3-yloxy)prop-1-en-2-yl)benzene, reference compound] | 96.2% | 92.4% | 89.3% | 76.6% | 57.3% | 44.5% | 33.6% | 100% |  | 
